According to US4409207A, “Derivatives of clavulanic acid, a process for their preparation and their use” (Beecham Group Limited, priority 1978, dated 1983):

Columns and labels:
[1] = test system: Kleb. E 70; test: standard MIC test of ampicillin with synergist, Kleb. E 70; format: cell-based
Description: (§1) The synergist referred to hereinafter is sodium 9-O-carboxamidomethylclavulanate.

[2] = test system: Proteus C889; test: standard MIC test of ampicillin with synergist, Proteus C889; format: cell-based; settings: 0 μg/ml synergist (ampicillin alone)
Description: as §1

[3] = test system: E. Coli JT 39; test: standard MIC test of ampicillin with synergist, E. Coli JT 39; format: cell-based
Description: as §1

[4] = test system: Staph. Russell; test: standard MIC test of ampicillin with synergist, Staph. Russell; format: cell-based
Description: as §1

[5] = test system: E. coli JT 39 infection; test: E. coli JT 39 infection in mice, CD50 of amoxycillin with subcutaneous synergist; format: in vivo
[6] = toxic effects during testing at therapeutic doses in animals; format: in vivo
[7] = test system: Staph. Russell, Kleb. E 70, Proteus C889, E. Coli JT 39; test: standard MIC tests, synergy statement; format: cell-based; settings: with ampicillin
Description: as §1

[8] = 0 μg/ml synergist (ampicillin alone)
[9] = synergist alone, obtained in separate test

SMILES: CC1(C)S[C@@H]2[C@H](NC(=O)[C@H](N)c3ccccc3)C(=O)N2[C@H]1C(=O)O [Ampicillin, reference compound]
- MIC of Ampicillin [1, 8]: > 32 µg/mL
- MIC of Ampicillin [2]: > 32 µg/mL
- MIC of Ampicillin [3, 8]: > 32 µg/mL
- MIC of Ampicillin [4, 8]: > 32 µg/mL

SMILES: NC(=O)COC/C=C1\O[C@@H]2CC(=O)N2[C@H]1C(=O)O [Example 2, Sodium 9-O-carboxamidomethylclavulanate]
- effect of the compound alone on infection ([5]; compound of this example alone at 2 mg/kg×2): no effect
- overt toxic symptoms ([6]; in vivo): No overt toxic symptoms were observed
- animal deaths due to toxic effects ([6]; therapeutic doses): did not cause animal deaths due to toxic effects
- MIC [1, 9]: 31 µg/mL
- synergy in standard MIC tests [7]: demonstrated synergy
- MIC ([3]; Escherichia coli, synergist alone, obtained in separate test): 31 µg/mL
- MIC [4, 9]: 31 µg/mL

SMILES: CC1(C)S[C@@H]2[C@H](NC(=O)[C@H](N)c3ccc(O)cc3)C(=O)N2[C@H]1C(=O)O [amoxycillin, reference compound]
- CD50 of amoxycillin ([5]; amoxycillin alone): greater than 500 mg/kg×2
